ChEMBL document CHEMBL4402594, “Interrogating the Lactate Dehydrogenase Tetramerization Site Using (Stapled) Peptides” (J Med Chem, 2020)
Active and inactive are the calls of the source. No cut-off for these calls is given here. Peptide text beside a SMILES is read from it.

How the values were obtained:
[1] = target: T1, L-lactate dehydrogenase B chain (Homo sapiens, UniProt P07195); test: Binding affinity to full length human N-terminal His6-tagged LDH-H expressed in Escherichia coli Rosetta (DE3) measured after 5 mins by Red-NHS fluorescent dye based microscale thermophoresis analysis
Target sequence in this assay (P07195 whole entry): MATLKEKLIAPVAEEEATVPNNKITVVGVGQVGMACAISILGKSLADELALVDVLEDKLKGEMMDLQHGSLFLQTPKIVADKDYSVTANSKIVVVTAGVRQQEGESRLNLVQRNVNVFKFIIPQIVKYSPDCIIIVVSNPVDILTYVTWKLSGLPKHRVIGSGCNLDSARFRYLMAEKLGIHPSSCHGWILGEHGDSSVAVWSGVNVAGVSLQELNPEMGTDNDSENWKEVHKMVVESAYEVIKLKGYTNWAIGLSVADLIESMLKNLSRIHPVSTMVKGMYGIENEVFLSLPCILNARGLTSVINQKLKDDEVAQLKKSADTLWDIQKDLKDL

[2] = target: T1, L-lactate dehydrogenase B chain; test: Binding affinity to full length human N-terminal His6-tagged LDH-H expressed in Escherichia coli Rosetta (DE3) assessed as saturation transfer stemming at 800 uM in sodium phosphate buffer at pH 7.6 by WaterLOGSY NMR analysis
Target sequence in this assay (P07195 2-334 limits assumed): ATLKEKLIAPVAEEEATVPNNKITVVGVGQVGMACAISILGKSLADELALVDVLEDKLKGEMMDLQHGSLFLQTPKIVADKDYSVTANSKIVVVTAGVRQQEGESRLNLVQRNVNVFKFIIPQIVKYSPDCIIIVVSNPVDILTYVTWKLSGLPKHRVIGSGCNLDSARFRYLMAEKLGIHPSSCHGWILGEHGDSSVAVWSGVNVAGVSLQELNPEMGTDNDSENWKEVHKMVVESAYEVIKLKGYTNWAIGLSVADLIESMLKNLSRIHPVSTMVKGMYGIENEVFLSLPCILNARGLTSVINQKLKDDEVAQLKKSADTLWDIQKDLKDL

[3] = target: T1, L-lactate dehydrogenase B chain; test: Binding affinity to full length human N-terminal His6-tagged LDH-H expressed in Escherichia coli Rosetta (DE3) assessed as saturation transfer at N-terminal residues at 800 uM phosphate buffer at pH 7 by 2D NMR-TOCSY analysis
Target sequence in this assay (P07195 2-334 limits assumed): as above

[4] = target: T1, L-lactate dehydrogenase B chain; test: Binding affinity to full length human N-terminal His6-tagged LDH-H expressed in Escherichia coli Rosetta (DE3) assessed as saturation transfer at C-terminal residues at 800 uM phosphate buffer at pH 7 by 2D NMR-TOCSY analysis
Target sequence in this assay (P07195 2-334 limits assumed): as above

[5] = target: T1, L-lactate dehydrogenase B chain; test: Binding affinity to recombinant full length human His-tagged LDH-1 (1 to 322 residues) expressed in Escherichia coli at 800 uM by WaterLOGSY NMR analysis
Target sequence in this assay (P07195 whole entry): as the sequence (P07195 whole entry) above

[6] = target: T1, L-lactate dehydrogenase B chain; test: Inhibition of recombinant full length human His-tagged LDH-1 (1 to 322 residues) expressed in Escherichia coli at 800 uM by WaterLOGSY NMR analysis
Target sequence in this assay (P07195 whole entry): as above

[7] = target: T1, L-lactate dehydrogenase B chain; test: Binding affinity to recombinant full length human His-tagged LDH-1 (1 to 322 residues) expressed in Escherichia coli by WaterLOGSY NMR analysis
Target sequence in this assay (P07195 whole entry): as above

[8] = target: T1, L-lactate dehydrogenase B chain; test: Binding affinity to recombinant full length human His-tagged LDH-1 (1 to 322 residues) expressed in Escherichia coli assessed as induction of thermal destabilization at 400 uM by nano differential scanning fluorimetry analysis
Target sequence in this assay (P07195 2-334 limits assumed): as the sequence (P07195 2-334 limits assumed) above

[9] = target: T2, L-lactate dehydrogenase A chain (Homo sapiens, UniProt P00338); test: Binding affinity to human N-terminal His6-tagged LDH-5 expressed in Escherichia coli Rosetta (DE3) assessed as induction of thermal destabilization at 400 uM by nano differential scanning fluorimetry analysis
[10] = target: T2, L-lactate dehydrogenase A chain; test: Binding affinity to human N-terminal His6-tagged LDH-5 expressed in Escherichia coli Rosetta (DE3) assessed as induction of thermal destabilization by measuring melting temperature at 400 uM by nano differential scanning fluorimetry analysis (reference value: 66 degree C)
[11] = target: T1, L-lactate dehydrogenase B chain; test: Binding affinity to recombinant full length human His-tagged LDH-1 (1 to 322 residues) expressed in Escherichia coli assessed as induction of thermal destabilization by measuring change in melting temperature at 400 uM by nano differential scanning fluorimetry analysis
Target sequence in this assay (P07195 2-334 limits assumed): as above

[12] = target: T2, L-lactate dehydrogenase A chain; test: Binding affinity to human N-terminal His6-tagged LDH-5 expressed in Escherichia coli Rosetta (DE3) assessed as induction of thermal destabilization by measuring change in melting temperature at 400 uM by nano differential scanning fluorimetry analysis
[13] = target: T2, L-lactate dehydrogenase A chain; test: Binding affinity to truncated human N-terminal His6-tagged LDH-5 expressed in Escherichia coli Rosetta (DE3) assessed as induction of thermal destabilization by measuring melting temperature at 400 uM by nano differential scanning fluorimetry analysis
[14] = target: T2, L-lactate dehydrogenase A chain; test: Binding affinity to human N-terminal His6-tagged human LDH-5 expressed in Escherichia coli Rosetta (DE3) assessed as induction of protein disruption by interacting with tetramerization site by Red-NHS fluorescence dye based microscale thermophoresis analysis
[15] = target: T2, L-lactate dehydrogenase A chain; test: Binding affinity to truncated N-terminal His6-tagged human LDH-5 expressed in Escherichia coli Rosetta (DE3) assessed as induction of protein disruption by interacting with tetramerization site by Red-NHS fluorescence dye based microscale thermophoresis analysis
[16] = target: L-lactate dehydrogenase A chain (Oryctolagus cuniculus) (UniProt P13491); test: Binding affinity to rabbit LDH-5 assessed as acid-induced dimerization by measuring fluorescence recovery at 0.75 uM to 400 uM pH 7.6 by nano differential scanning fluorimetry analysis

Kd [1] [µM]	Activity [2]	Activity [3]	Activity [4]	Activity [5]	inhibition (INH) [6]	Activity [7]	Activity [8]	Activity [9]	Tm [10] [°C]	ΔTm [11] [°C]	ΔTm [12] [°C]	Activity [13]	EC50 [14] [µM]	Activity [15]	Activity [16]	Compound
1780	Active	Active	Active	Not Active	Not Active	Not Active										H-ATLKEKLIAPVAEEEATVP-NH2
							Active	Active	61	-1.5	-5	inactive	172	inactive	Active	CC[C@H](C)[C@H](NC(=O)[C@H](CC(C)C)NC(=O)[C@H](CCCCN)NC(=O)[C@@H]1CSc2c(F)c(F)c(c(F)c2F)SC[C@H](N)C(=O)N[C@@H]([C@@H](C)O)C(=O)N[C@@H](CC(C)C)C(=O)N[C@@H](CCCCN)C(=O)N1)C(N)=O (HELM PEPTIDE1{C.T.L.K.C.K.L.I.[am]}|CHEM1{[Fc1c(F)c([*:2])c(F)c(F)c1[*:1]]}$PEPTIDE1,CHEM1,1:R3-1:R1|PEPTIDE1,CHEM1,5:R3-1:R2$$$V2.0)
